# Structures can show the parent of a compound that is named as a salt.
# Experiments:
# [1] = Inhibition of cross-linking of N-acetyl glycyl-lysine methyl ester in the presence of ribose (fluorescence); format: biochemical; conditions: 0.5 M sodium phosphate buffer pH 7.4, 37° C, 16-24 hours, fluorescence 350/400 nm
# Description: The following method was used to evaluate the ability of the compounds of the present invention to inhibit the cross-linking of N-acetyl glycyl-lysine methyl ester in the presence of ribose. […] Reaction mixtures are prepared as follows: [table] […] At the end of the incubation period reaction mixture is diluted with 3 ml distilled water and the fluorescence is read using an excitation wavelength of 350 nm and emission wavelength of 400 nm.
# [2] = system: fixed protein (gelatin, i.e., collagen) surface; assay: Surface browning experiment on gelatin/paper disks in glucose-6-phosphate; conditions: 100 mM glucose-6-phosphate, one week at 50°C; Peridex® at a final concentration of 0.04% chlorhexidine
# Description: To further study the ability of inhibitors of nonenzymatic browning to prevent the discoloration of protein on a surface, such as that which occurs on the tooth surface, the following surface browning experiment is performed. As a substitute for a pellicle-covered tooth surface, unexposed and developed photographic paper is used to provide a fixed protein (gelatin, i.e., collagen) surface on a paper backing. Five millimeter circles are punched and immersed for one week at 50°C in a solution of 100 mM glucose-6-phosphate in a 0.5 M phosphate buffer, pH 7.4, containing 3 mM sodium azide. […] In addition to the glucose-6-phosphate, chlorhexidine and/or a compound of Formula I are included. After incubation, the gelatin/paper disks are rinsed with water, observed for brown color, and photographed.
Compound,IC50 [1] [µM],brown color of gelatin/paper disks [2]
"CC(C)c1nnc(N)n(N)c1=O [3,4-diamino-6-isopropyl-1,2,4-triazine-5(4H)-one hydrochloride]",1050,
"CC(C)(CO)c1nnc(N)n(N)c1=O [3,4-diamino-6-(1',1'-dimethyl-2'-hydroxyethyl)-1,2,4-triazine-5(4H)-one]",970,
"COc1ccc(C=Cc2nnc(N)n(N)c2=O)cc1OC [3,4-diamino-6-(3,4-dimethoxystyryl)-1,2,4-triazine-5(4H)-one hydrochloride]",350,
"CCCCCCC(C(=O)OCC)c1nnc(N)n(N)c1=O (centres unmarked) [3,4-diamino-6-(1'-ethoxycarbonylheptyl)-1,2,4-triazine-5(4H)-one hydrochloride]",480,
"NNc1nnc(Cc2ccc(O)cc2)c(=O)n1N [4-amino-3-hydrazino-6-(4'-hydroxybenzyl)-1,2,4-triazin-5(4H)-one hydrochloride]",> 1000,
"Nc1nnc(Cc2ccccc2)c(=O)n1N [3,4-diamino-6-benzyl-1,2,4-triazine-5(4H)-one hydrochloride]",1200,
"2-methyl-[6'-(3',4'-diamino-5(4H)-one-1,2,4-triazinyl)]hydrazide",830,
[H]/N=C(\N/C(=N/[H])NCCCCCCNC(=N)NC(=N)Nc1ccc(Cl)cc1)Nc1ccc(Cl)cc1 [chlorhexidine],,significant browning
"CCOC(=O)c1nnc(N)n(N)c1=O [3,4-diamino-6-carboxyethyl-1,2,4-triazine-5(4H)-one hydrochloride]",720,
"NNC(=O)CCc1nnc(N)n(N)c1=O [3-[6'-(3',4'-diamino-5'(4H)-one-1',2',4'-triazinyl)]-propionic hydrazide hydrochloride]",1500,
"CCC(C)c1nnc(N)n(N)c1=O (centres unmarked) [3,4-diamino-6-(1-methylpropyl)-1,2,4-triazine-5(4H)-one]",1400,
"Nc1nnc(Cc2ccccc2[N+](=O)[O-])c(=O)n1N [3,4-diamino-6-(2'-nitrobenzyl)-1,2,4-triazine-5(4H)-one hydrochloride]",900,
"Nc1nnc(C2CC2)c(=O)n1N [3,4-diamino-6-cyclopropyl-1,2,4-triazine-5(4H)-one]",2000,
"COc1cccc(C(=O)Cc2nnc(N)n(N)c2=O)c1 [3,4-diamino-6-(3'-methoxyphenylcarbonylmethylene)-1,2,4-triazine-5(4H)-one hydrochloride]",> 10000,
"CCOC(=O)CCc1nnc(N)n(N)c1=O [3,4-diamino-6-(2'-ethoxycarbonylethyl)-1,2,4-triazine-5(4H)-one hydrochloride]",840,
"CCCc1nnc(N)n(N)c1=O [3,4-diamino-6-propyl-1,2,4-triazine-5(4H)-one hydrochloride]",1300,
"NNc1nncc(=O)n1N [4-amino-3-hydrazino-1,2,4-triazin-5(4H)-one hydrochloride]",> 10000,
"CC(C)Cc1nnc(N)n(N)c1=O [3,4-diamino-6-(2-methypropyl)-1,2,4-triazine-5(4H)-one]",1160,
"CCOC(=O)C(C)c1nnc(N)n(N)c1=O (centres unmarked) [3,4-diamino-6-(1'-ethoxycarbonylethyl)-1,2,4-triazine-5(4H)-one hydrochloride]",1650,
"Cc1nnc(N)n(N)c1=O [3,4-diamino-6-methyl-1,2,4-triazine-5(4H)-one]",1230,
"NNC(=O)c1nnc(N)n(N)c1=O [6-(3',4'-diamino-5(4H)-one-1,2,4-triazinyl)hydrazide]",730,
"Nc1nnc(Cc2ccc(O)cc2)c(=O)n1N [3,4-diamino-6-(4-hydroxybenzyl)-1,2,4-triazine-5(4H)-one hydrochloride]",4400,
"Nc1nnc(CCc2ccccc2)c(=O)n1N [3,4-diamino-6-phenethyl-1,2,4-triazine-5(4H)-one hydrochloride]",2700,
"Cc1nnc(NN)n(N)c1=O [4-amino-3-hydrazino-6-methyl-1,2,4-triazin-5(4H)-one hydrochloride]",< 3000,
"CCc1nnc(N)n(N)c1=O [3,4-diamino-6-ethyl-1,2,4-triazine-5(4H)-one hydrochloride]",2000,
"Nc1nnc(CCC(=O)O)c(=O)n1N [3,4-diamino-6-(2'-carboxyethyl)-1,2,4-triazine-5(4H)-one]",1970,
